From patent US7429460B2, “Methods of screening for inhibitors of phospholipid synthesis related to glycolipid-storage diseases” (Yeda Research and Development Co., Ltd., priority 2003, dated 2008)

Legend:
rat hippocampal neurons [1] = experiment: Labeling of neuronal lipids with [14C]methyl choline; type: cell-based; conditions: after 4-days of treatment, remained elevated for at least 8-days
Method: Neurons were incubated for 48 h with 1 μCi [^14C]methyl choline/ml of culture medium. Subsequently, medium was removed and the neurons were washed 3-times with phosphate-buffered saline. Neurons were removed from the cover slips by scraping with a rubber policeman into 2 ml of cold methanol, and then sonicated. Part of the resulting suspension was used for lipid analysis, part for analysis of the incorporation of total radioactivity into the cells, and part for DNA analysis (see below).
Lipids were extracted by addition of chloroform to obtain a final chloroform/methanol ratio of 1:1 (v/v). The lower phase was dried under N2 and the upper phase was kept for analysis of [^14C]methyl choline incorporation into water-soluble metabolites. […] One ml of methanol and 5 ml of Optima Gold scintillation fluid (Packard, Downers Groove, Ill.) were added to each vial for scintillation counting, and radioactivity was determined in a Packard 2100 beta radiospectrometer equipped with the Transformed Spectral Index of the External Standard/Automatic Efficiency Control (tSIE/AEC) program for quench correction and counting of double radiolabeled samples.

CCT α and β1/2 RNA = experiment: RT-PCR of CCT isoforms in treated neurons; type: cell-based, rat; conditions: 500 μM CBE, up to 8-days
Method: Total cellular RNA was prepared from ˜0.5×10^6 neurons grown on 24 mm cover slips using the RNeasy Mini Kit (Qiagen, Hilden, Germany) according to manufacturers'instructions. The reverse transcription-polymerase chain reaction (RT-PCR) was performed using the QIAGEN OneStep RT-PCR kit (Qiagen, Hilden, Germany). Briefly, each reaction contained 10 ng of total RNA, 0.6 μM of primers, 1.6 mM deoxynucleotide triphosphates (0.4 mM each) and 1 μl QIAGEN OneStep RT-PCR Enzyme Mix in the supplied buffer in a total volume of 25 μl. Primers (CCT: 5′-ACTTTAGTAA GCCCTATGTC (SEQ ID NO. 7) and 5′-[…] (SEQ ID NO. 8), 34 cycles, annealing temperatures 53° C.; CCT: 5′-[…] (SEQ ID NO. 9) and 5′-[…] (SEQ ID NO. 10), 30 cycles, annealing temperature 51° C.; glyceraldehyde -3-phosphate dehydrogenase: 5′-TTAGCACCCCTGGCCAAGG (SEQ ID NO. 11) and 5′- ATTACTCCTT GGAGGCCATG (SEQ ID NO. 12), 23 cycles, annealing temperature 50° C.) were designed using the MacMolly Tetra program (Sofigene, Berlin, Germany) and were synthesized by the Weizmann Institute Oligonucleotide and Peptide Synthesis facility. […] PCR products, 9 μl each, were analyzed by electrophoresis in 1.5 % agarose gels.

rat hippocampal neurons [2] = conditions: 200 μM CBE, after 3 days in culture; cited from earlier work
rat hippocampal neurons [3] = conditions: 500 μM CBE for 4- or 8-days; cited from earlier work
[4] = test system: CTP:phosphocholine cytidylyltransferase (CCT); experiment: CCT assay in hippocampal neuron homogenates with substance added to the assay mixture; type: biochemical, rat; conditions: added directly to the assay mixture
Method: Neurons from individual cover slips were washed twice with ice-cold phosphate-buffered saline, and cells removed by scraping into 300 μl of buffer containing 50 mM imidazole, 2 mM EDTA, 150 mM KCl, 6 mM ADP, 0.2 mM phenylmethylsulfonylfluoride, 1 μg/ml pepstatin and 1 μg/ml leupeptin. After brief sonication, an aliquot was removed for DNA determination and 100 μl was used for the CCT assay.
CCT was assayed as described (Weinhold P A and Feldman D A. 1992. Choline-phosphate cytidylyltransferase. Methods Enzymol. 209, 248-258), with some minor modifications. The assay was performed in a final volume of 200 μl containing 1.6 mM phosphorylcholine/0.25 μCi [^14C]methyl phosphorylcholine, 3 mM CTP, 12 mM magnesium acetate, and DOPC liposomes with or without oleic acid and GicCer or GalCer, as indicated in the figure legends. Liposomes were prepared by sonicating resuspended lipids in the assay buffer at room temperature for 3 min using a sonicator (Sonics & Materials Inc., Newtown, Conn.) fitted with a micro-tip probe set to 750 W output, using 25% of the maximal amplitude and with pulsations of 9.0 sec every 9.2 sec, which gave a translucent liposome preparation with no precipitates. The final concentration of DOPC and oleic acid in the liposomes was 500 μM each. The reaction was terminated after 25 min at 37° C. by addition of 200 μl of 150 mM phosphorylcholine in 10% trichloroacetic acid. CDP-choline was recovered by addition of 2 ml of 6% charcoal in water (w/v). After 30 min at room temperature the charcoal suspension was washed 4 times with water and centrifuged at 1,000 gav for 10 min. The aqueous supernatants were removed and CDP-choline was eluted from the charcoal with 3 washes of water/ethanol/28% NH4OH (116:188:11, v/v/v). Eluates were pooled and evaporated to dryness under N2. Phosphorylcholine and CDP-choline were added to the tubes and the samples separated by TLC using 0.9% NaCl/methanol/28% NE4OH (50:70:5, v/v/v) as the developing solvent. Metabolites were identified by iodine, and the CDP-choline spot was scraped into scintillation vials for scintillation counting.
CCT activity was assayed in homogenates prepared from 8-day-old normal rat hippocampal neurons as described herein above. The reaction mixture comprised 0.5 mM DOPC/0.5 mM oleic acid/0.3 mM sphingolipid or lyso-sphingolipid. CCT activity with each sphingolipid or lyso-sphingolipid was measured twice. Basal CCT activity differed by ˜20% between the two experiments; however, the extent of activation or inhibition of CT activity was similar for each sphingolipid and lyso-sphingolipid.

For `O[C@H]1[C@H](O)[C@@H](O)[C@@H]2O[C@@H]2[C@@H]1O` (racemic) [CBE, conduritol-B-epoxide], the “[14C]methyl choline incorporation into [14C]SM and [14C]PC” value (rat hippocampal neurons [1]) is given as “significant increase”, the “CCT RNA levels (RT-PCR)” value (CCT α and β1/2 RNA) is given as “No changes” and the “axons longer than untreated counterparts” value (rat hippocampal neurons [2]) is given as roughly 20%. For the same compound, the “increase in the rate of incorporation of [3H]dihydrosphingosine into [3H]GlcCer” value (rat hippocampal neurons [3]) was 4-5 fold and the “effect on CCT activity when added directly to the assay mixture” value [4] was “had no effect”.
